US6602862B1, “1-Amino-alkylcyclohexanes as trypanocidal agents” (Merz Pharma GmbH & Co., KGAA, priority 2000, dated 2003)
Read-outs that look alike come from different tables or passages of the source.

Tests used:
[1] = tested on: Bloodstream form T-brucei (strain 427); experiment: Growth inhibition of cultured bloodstream form T. brucei, 3 days in presence of test compounds; conditions: for (Inhibition) (5 μg ml^−1): preliminary screen at 5 μg ml^−1, 3 days; for inhibition at 5 µg/mL: read-out: (Inhibition) (5 μg ml^−1)
Experimental: After determination of cell densities at each drug concentration using a hemocytometer (Weber Scientific International Ltd), drug sensitivity was expressed as a percentage of growth of control cells.
In a preliminary screen, bloodstream form T.brucei were cultured for 3 days in growth medium at pH 7.4 in the presence of aminoalkylcyclohexane derivatives at a concentration of 5 μg ml^−1.
Initially each compound was screened to determine the inhibitory effect at 5 μg ml^−1 (data in brackets). […] Each experiment was performed in triplicate, except where indicated (++). […] Values are presented as ±SD from the mean. […] All other compounds were dissolved in H2O. Control cells were treated accordingly. ND stands for not done.

[2] = patients, advanced stage of the disease; cited from earlier work
[3] = tested on: bloodstream form of the African trypanosome, Trypanosoma brucei; conditions: reported recently; cited from earlier work
[4] = Trypanosoma brucei, 72 h, pH 7.4
[5] = concentration inhibiting growth by 50%, 3 days, 37°, pH 7.4, ±SD
[6] = concentration inhibiting growth by 90%, 3 days, 37°, pH 7.4, ±SD, ++ = six experiments
[7] = Trypanosoma brucei, 72 h, read-out: IC90

In the case of CCCC1(CCC)CC(C)(C)CC(C)(N)C1 (stereo not drawn) [Compound 626, 1,3,3-Trimethyl-5,5-dipropylcyclohexylamine], the IC50 [1, 4] is reported as 0.25 ± 0.01 µg/mL and the IC90 [1, 4] is reported as 0.29 ± 0.01 µg/mL.

In the case of CCCC1(C)CC(C)CC(C)(N)C1 (stereo not drawn) [Compound 618, 1-Amino-1,3 (trans),5 (trans)-trimethyl-3(cis)-propylcyclohexane], the IC50 [1, 5] is reported as 2.19 ± 0.69 µg/mL and the IC90 [1, 6] is reported as 3.59 ± 0.17 µg/mL.

With CCC[C@H]1CC(C)(C)C[C@@](C)(N)C1 (relative stereo) [Compound 634, cis-3-Propyl-1,5,5-trimethylcyclohexylamine] the IC50 [1, 5] was 0.57 ± 0.13 µg/mL and the IC90 [1, 6] was 0.77 ± 0.15++ μg ml−1.

Work on CCCC1CCCC(C)(N)C1 (stereo not drawn) [Compound 628, 1-Methyl-3-cis-propylcyclohexylamine] yielded an IC50 [1, 5] of 1.54 ± 0.02 µg/mL and an IC90 [1, 6] of 1.95 ± 0.03 µg/mL.

In the case of CC1(C)CC(CCN)CC(C)(C)C1 [Compound 644, 2-(3,3,5,5-Tetramethylcyclohexyl)ethylamine], the IC50 [1, 4] is reported as 0.23 ± 0.02 µg/mL and the IC90 [1, 4] is reported as 0.31 ± 0.03 µg/mL.

CCC[C@H]1CC(C)(C)C[C@](C)(N)C1 (relative stereo) [Compound 635, trans-3-Propyl-1,5,5-trimethylcyclohexylamine] gave an IC50 [1, 5] of 2.23 ± 0.33 µg/mL and an IC90 [1, 6] of 3.67 ± 0.06 µg/mL.

In the case of C[C@H]1CCC[C@](C)(N)C1 (relative stereo) [Compound 625, 1-Amino-1,3 (trans)-dimethylcyclohexane], the “(Inhibition) (5 μg ml^−1)” value [1] is reported as “(0%)”.

For CN(C)C1(C)CC(C)(C)CC(C)(C)C1 [Compound 642, N,N-dimethyl-1-amino-1,3,3,5,5-pentamethylcyclohexane], the inhibition at 5 µg/mL ([1]; Trypanosoma brucei, 72 h) was 21%.

CC1(N)CCCCC1 [Compound 641, 1-Amino-1-methylcyclohexane] showed an inhibition at 5 µg/mL ([1]; Trypanosoma brucei, 72 h) of 86%.

With CCCC1(N)CC(C)(C)CC(C)(C)C1 [Compound 601, 1-Amino-1-propyl-3,3,5,5-tetramethylcyclohexane] the IC50 [1, 4] was 1.43 ± 0.08 µg/mL, the IC90 [1, 4] was 1.87 ± 0.02 µg/mL and the IC90 [1, 7] was < 2 µg/mL.

In the case of CCC[C@H]1CCC[C@](C)(N)C1 (relative stereo) [Compound 627, 1-Amino-1-methyl-3 (trans) propylcyclohexane], the “(Inhibition) (5 μg ml^−1)” value [1] is reported as “(17%)”.

Compound CC[C@@H]1CC(C)(C)C[C@](C)(N)C1 (relative stereo) [Compound 632, 1-Amino-1,3,3-trimethyl-5 (cis) ethylcyclohexane] has an IC50 [1, 4] of 2.92 ± 0.19 µg/mL and an IC90 [1, 4] of 3.8 ± 0.07 µg/mL.

In the case of CCC1(C)CC(C)(C)CC(C)(N)C1 (stereo not drawn) [Compound 615, 1-Amino-1,3,5,5-tetramethyl-3-ethylcyclohexane], the IC50 [1, 4] is reported as 1.45 ± 0.07 µg/mL and the IC90 [1, 4] is reported as 1.93 ± 0.02 µg/mL.

Compound CC(C)(N)CC1CC(C)(C)CC(C)(C)C1 [Compound 645, 2-Methyl-1-(3,3,5,5-tetramethylcyclohexyl)propyl-2-amine] has an IC50 [1, 5] of 0.22 ± 0.02 µg/mL and an IC90 [1, 6] of 0.29 ± 0.01 µg/mL.

In the case of Nc1nc(N)nc(Nc2ccc([As]3SCC(CO)S3)cc2)n1 (stereo not drawn) [Melarsoprol], the “patient mortality due to arsenic encephalopathy” value [2] is given as 5 to 10%.

In the case of CC(N)C12CC3CC(CC(C3)C1)C2 (stereo not drawn) [rimantadine], the “sensitivity of bloodstream form T. brucei” value [3] is given as “sensitive”.

With CC1(C)CC(CN)CC(C)(C)C1 [Compound 580, 3,3,5,5-Tetramethylcyclohexylmethylamine] the IC50 [1, 4] was 1.44 ± 0.09 µg/mL, the IC90 [1, 4] was 1.89 ± 0.02 µg/mL and the IC90 [1, 7] was < 2 µg/mL.

Work on CCC1(C)CCCC(C)(N)C1 (stereo not drawn) [Compound 620, 1-Amino-1,3-dimethyl-3-ethylcyclohexane] yielded an inhibition at 5 µg/mL ([1]; Trypanosoma brucei, 72 h) of 25%.

For C[C@@H]1CC(C)(C)C[C@@](C)(N)C1 (relative stereo) [Compound 607, 1-Amino-1,3,3,5(trans)-tetramethylcyclohexane], the “(Inhibition) (5 μg ml^−1)” value [1] was “(17%)”.

CCCC1(C)CCCC(C)(N)C1 (stereo not drawn) [Compound 617, 1-Amino-1,3-dimethyl-3-propylcyclohexane] showed an IC50 [1, 4] of 1.54 ± 0.08 µg/mL and an IC90 [1, 4] of 2.33 ± 0.24 µg/mL.

Work on CC[C@H]1CCC[C@](C)(N)C1 (relative stereo) [Compound 629, 1-Amino-1-methyl-3 (trans) ethylcyclohexane] yielded an inhibition at 5 µg/mL ([1]; Trypanosoma brucei, 72 h) of 2%.

Work on CCCC1(C)CC(C)(C)CC(C)(N)C1 (stereo not drawn) [Compound 614, 3-Propyl-1,3,5,5-Tetramethylcyclohexylamine] yielded an IC50 [1, 4] of 0.55 ± 0.11 µg/mL and an IC90 [1, 4] of 0.88 ± 0.09 µg/mL.

For CC1(C)CC(C)(C)CC(C)(CCN)C1 [Compound 662, 2-(1,3,3,5,5-Pentamethylcyclohexyl-1) ethylamine], the IC50 [1, 5] was 0.24 ± 0.03 µg/mL and the IC90 [1, 6] was 0.38 ± 0.08++ μg ml−1.

Compound CC1(C)CCCC(C)(N)C1 (stereo not drawn) [Compound 621, 1-Amino-1,3,3-trimethylcyclohexane] has an inhibition at 5 µg/mL ([1]; Trypanosoma brucei, 72 h) of 40%.

For CCC1CC(C)(C)CC(C)(N)C1 (stereo not drawn) [Compound 633, 1-Amino-1,3,3-trimethyl-5 (trans) ethylcyclohexane], the inhibition at 5 µg/mL ([1]; Trypanosoma brucei, 72 h) was 68%.

With CCNC1(C)CC(C)(C)CC(C)(C)C1 [Compound 639, N-Ethyl-1,3,3,5,5-pentamethylcyclohexylamine] the IC50 [1, 4] was 1.37 ± 0.19 µg/mL, the IC90 [1, 4] was 1.96 ± 0.03 µg/mL and the IC90 [1, 7] was < 2 µg/mL.

For CCC1(C)CC(C)CC(C)(N)C1 (stereo not drawn) [Compound 622, cis-3-Ethyl-1, trans-3, trans-5-trimethylcyclohexamine], the “(Inhibition) (5 μg ml^−1)” value [1] was “(40%)”.
